The source of these data is PMC5317004 (Scientific Reports, 2017).

The experiment relates to chimeric α7-GluClβR. Kind of experiment: Voltage ramps during current decline: reversal potential, chloride chord conductance, IVM rate constants. Format: cell-based, chick nAChR α7 / C. elegans GluClβ. As to the method:
Figure 6 Chloride conductance of α7-GluClβRs. Representative whole-cell current traces elicited by: (A) ACh alone and (B) ACh to which IVM was added after the current peak. Recordings were performed at −60 mV with intervening 200-ms-long voltage ramps applied from −80 to +20 mV during the current decline, giving output currents r1–r13. *, time lapse of ~1 sec between protocols’ exchange (see “Supplementary Materials and Methods”). Traces in A and B were recorded from the same cell, with an intermediate 74-sec-long wash. Right panels show superimposition of the output currents. (C,D) Current-voltage (I/V) relations extracted from A and B, respectively (r13 in D overlaps the x-axis). (E) Reversal potentials (Erev) extracted from the voltage-ramps’ output currents of A (black squares) and B (red circles), plotted as a function of time (0 sec, time of r1). (F) Decay of chloride chord conductance plotted as a function of time, in the absence or presence of IVM. The conductance points were calculated at −65 mV based on the voltage-ramps’ output currents shown in A and B. Exponential fits (Eq. 6) are shown. (G,H) Normalized (Norm.) conductance (G), current (I), intracellular Cl^− ion concentration ([Cl]i), and electrochemical driving force (VDF) plotted as a function of time for ACh-dependent responses in the absence (panel G) or presence (panel H) of IVM (relating to responses in A and B, respectively). (I,J) Decay of chloride chord conductance plotted as a function of time in representative cells exposed to different IVM concentrations. (K,L,M) Averaged normalized chloride chord conductance (Norm. G) plotted as a function of time under different IVM concentrations. In each cell, each conductance was normalized to the conductance extracted from r1 of the ACh-alone application. N = 7, 11 and 8 in K, L and M, respectively. Error bars are SEM. (N) 1/τIVM plotted as a function of IVM concentration, using equation 7 for curve fitting by linear regression (r^2 = 0.999). 26 cells were analyzed to obtain the averaged 1/τIVM points. Error bars are SEM.
We then took advantage of the capability of IVM to accelerate the current decline in order to determine the binding affinity of IVM. To this end, the voltage ramps’ output currents obtained in the presence of IVM were subtracted from their counterpart currents obtained in the absence of IVM. Then, we calculated the chloride conductance based on the resulting subtracted currents at each ramp. This chloride conductance is hereafter termed GIVM. In each experimented cell, we fitted exponential curves to the first 5-6 conductance points, where there was no substantial difference between the ∆Erev values in the absence or presence of IVM. These exponential fits for the GIVM points were obtained at various IVM concentrations, and they actually provide the time constant of the IVM-dependent Cl^−-conductance decay (τIVM).
Chord conductance (G) was calculated by using equation 5 as follows: […]
The relationship between the conductance values and time was plotted for each cell, and the time constant of conductance decay was determined by fitting an exponential curve to the data points using equation 6 as follows: […]
To calculate the IVM association (kf) and dissociation (kb) rate constants, a curve was fitted to the 1/τIVM values by a linear regression using equation 7 as follows: where τIVM is the time constant of the IVM-dependent Cl^−-conductance decay, and [IVM] is the concentration of IVM. […]

For the molecule `CC[C@H](C)[C@H]1O[C@]2(CC[C@@H]1C)C[C@@H]1C[C@@H](C/C=C(\C)[C@@H](O[C@H]3C[C@H](OC)[C@@H](O[C@H]4C[C@H](OC)[C@@H](O)[C@H](C)O4)[C@H](C)O3)[C@@H](C)/C=C/C=C3\CO[C@@H]4[C@H](O)C(C)=C[C@@H](C(=O)O1)[C@]34O)O2` [IVM, Ivermectin], the “IVM-dependent decrease in the chloride conductance” value (0.5 μM IVM, 740 milliseconds after application, 30 μM ACh) amounted to 20 ± 2%. For the same molecule, the “leftward shift in reversal potential (∆Erev)” value (30 μM ACh plus 4 μM IVM added after the peak, representative cell) was found to be 11 mV. Further, the Kd (IVM applied after activation by ACh, read-out: Kd (kb/kf) for IVM binding to activated receptor) came to 1400 nM. Also, the “Kd (after activation) relative to IC50/Ki (prior to activation)” value (Kd […] vs 156 nM) is “nine times higher”. Further, the “IVM association rate constant (k forward, kf)” value (slope of 1/τIVM vs IVM concentration, 30 μM ACh, 26 cells) stood at 290800 M^−1⋅s^−1.
